This note sets out measurements from patent US5229413A, “Compositions containing indole-2-carboxylate compounds for treatment of CNS disorders” (G. D. Searle & Co., priority 1992, dated 1993).

The target of assay [1] is T1, strychnineinsensitive glycine recognition site (NMDA receptor-ion channel complex) (Rattus norvegicus, UniProt P35439).
T1 construct: Synaptic plasma membranes (SPM) were prepared from rat forebrain; from tissue; host or cells: rat forebrain synaptic plasma membranes
Description: Glycine binding assay, [3H]glycine, synaptic plasma membranes. The settings on record: 10 nM [3H]glycine, pH 7.4, rat forebrain SPM; read-out: Ki apparent, Gly. On the procedure:
Synaptic plasma membranes (SPM) were prepared from rat forebrain and stored as previously described [J. B. Monahan and J. Michel, J. Neurochem, 48, 1699-1708 (1987)]. Frozen membranes were thawed and diluted 1:20 with 0.04% triton X-100 in 50 mM tris/acetate (pH 7.4). Following incubation at 37° C. for 30 min., the SPM were collected by centrifugation at 95,000 X g for 15 min. The pellet was resuspended in 50 mM tris/acetate (pH 7.4, triton-free) and hand-homogenized five times. The membranes were again centrifuged as above. The pellet was washed two additional times with 50 mM tris/acetate (without homogenization) and centrifuged. The final pellet was resuspended with homogenization in 50 mM tris/acetate.
In the general receptor binding assay procedure, 10 nM [^3 H]glycine was added to the appropriate concentration of the test compounds and the assay initiated by the addition of 0.2-0.4 mg of ice cold SPM. The assay, which was done in 1.5 ml centrifuge tubes, was adjusted to a total volume of 1.0 ml with all additions being made in 50 mM tris/ acetate, pH 7.4 at 4° C. After a 10 minute incubation at 2° C., the samples were centrifuged for 15 min. at 12,000 g (4° C.) in a Beckman Microfuge 12. The supernatant was aspirated and the tube tip containing the pelleted membranes cut off and agitated in 0.5 ml of Beckman BTS-450 tissue solubilizer for a minimum of 6 hours at room temperature. Beckman MP scintillation cocktail (5 ml) containing 7 ml/liter acetic acid was then added and the samples counted on a Beckman LS 5800 liquid scintillation counter with automatic corrections for quenching and counting efficiency. […] The binding of [^3 H]glycine to the SPM was analyzed using Scatchard and Hill transformations and the Ki for other compounds was determined using logit-log analysis. Calculations and regression analysis were performed using templates developed for Lotus 123 as previously described [Pullan et al, Id.].

Assay [2] deals with N-methyl-D-aspartate (NMDA) receptor site. As to the kind of experiment: Glutamate (NMDA) binding assay, L-[3H]glutamate, synaptic plasma membranes. The settings on record: L-[3H]glutamate 12.5 nM, pH 7.4, 0-4° C.; read-out: Ki apparent, NMDA. On the procedure: The purpose of this assay is to determine the binding affinity of a compound of Formula I for the N-methyl-D-aspartate (NMDA) receptor site. This procedure was carried out as follows:
Synaptic plasma membranes (SPM) were prepared as previously described [Monahan, J. B. and Michel, J., "Identification and Characterization of an N-methyl-D-aspartate-specific L-[^3 H]glutamate Recognition Site in Synaptic Plasma Membranes, J. Neurochem., 48, 1699-1708 (1987)]. The SPM were stored at a concentration of 10-15 mg/ml in 0.32 M sucrose, 0.5 mM EDTA, 1 mM MgSO4, 5 mM Tris/SO4, pH 7.4, under liquid nitrogen. The identity and purity of the subcellular fractions were confirmed by both electron microscopy and marker enzymes. Protein concentrations were determined by using a modification of the method of Lowry [Ohnishi, S. T. and Barr, J. K., "A Simplified Method of Quantitating Proteins Using the Biuret and Phenol Reagents", Anal. Biochem., 86, 193-197 (1978)]. The SPM were thawed at room temperature, diluted twenty-fold with 50 mM Tris/acetate, pH 7.4, incubated at 37° C. for 30 minutes, and centrifuged at 100,000 g for 15 minutes. The dilution, incubation, and centrifugation was repeated a total of three times. This general method involved adding 12.5 nM of the L-[^3 H]glutamate radioligand to the appropriate concentration of the test compound and initiating the assay by the addition of ice cold SPM (0.2-0.45 mg). The binding assays were performed in 1.5 ml centrifuge tubes with the total volume adjusted to 1.0 ml. Additions of test compounds were made in 50 mM Tris/acetate, pH 7.4 and incubations were carried out at 0°-4° C. The incubation time for the NMDA binding assay was 10 minutes. To terminate the incubation, the samples were centrifuged for 15 minutes at 12,000 g and 4° C. in a Beckman Microfuge 12. The supernatant was aspirated and the pelleted membranes dissolved in Beckman Ready-Protein scintillation cocktail and the samples counted on a Beckman LS 5800 or 3801 liquid scintillation counter with automatic corrections for quenching and counting efficiency. Nonspecific binding was defined as the residual binding in the presence of 0.5 mM NMDA and was typically 15-25% of the total binding in the NMDA binding assay. Radioligand binding to the SPM was analyzed using Scatchard and Hill transformations and the Ki values of the compounds determined using logit-log transformations. Calculations and regression analysis were performed using templates developed for Lotus 1, 2, 3 as previously described [Pullan, L. M. "Automated Radioligand Receptor Binding Analysis with Templates for Lotus", Computer Appln. Biosci., 3 131 (1987)]. Binding results are reported in Table II for example compounds of the invention.

In the case of `O=C(O)c1[nH]c2ccccc2c1CCO` [compound 20, 3-(2-hydroxyethyl)indole-2-carboxylic acid], the Ki in assay [1] was over 10 µM.
`Cc1ccc2[nH]c(C(=O)O)cc2c1` [compound 17, 5-methylindole-2-carboxylic acid]: the Ki in assay [2] and in assay [1] was over 100 µM throughout.
`CN(C)CCCNC(=O)Cc1c(C(=O)O)[nH]c2cc(Cl)ccc12` [compound 40, 2-carboxy-6-chloro-3-indoleacetic acid 3-(3-dimethylaminopropyl)amide]: the Ki in assay [1] is over 30 µM.
Turning to `O=C(O)c1cc2cc(Cl)ccc2[nH]1` [compound 14, 5-chloroindole-2-carboxylic acid], the Ki in assay [2] and in assay [1] was over 100 µM throughout.
Consider `O=Cc1c(C(=O)O)[nH]c2ccccc12` [compound 24, 3-formylindole-2-carboxylic acid], for which the Ki in assay [2] is over 100 µM.
Consider `O=C(O)c1cc2c(C(=O)O)cccc2[nH]1` [compound 26, 4-carboxyindole-2-carboxylic acid], for which the Ki in assay [1] is over 20 µM.
As for `CC(=O)Cc1c(C(=O)O)[nH]c2ccccc12` [compound 25, 3-(2-oxopropyl)indole-2-carboxylic acid], the Ki in assay [1] is over 30 µM.
`COc1ccc2[nH]c(C(=O)O)cc2c1` [compound 18, 5-methoxyindole-2-carboxylic acid]: the Ki in assay [2] and in assay [1] was over 100 µM throughout.
In the case of `O=C(O)c1cc2cc(F)ccc2[nH]1` [compound 15, 5-fluoroindole-2-carboxylic acid], in assay [2], the Ki is over 100 µM.
Turning to `O=C(O)Cc1c(C(=O)O)[nH]c2ccc(Br)cc12` [compound 4, 5-bromo-2-carboxy-3-indoleacetic acid], the values for the Ki in assay [2] and in assay [1] were over 100 µM and 26.2 µM, respectively.
On to `O=C(O)Cc1c(C(=O)O)[nH]c2ccc(Cl)cc12` [Compound No. 3, 2-carboxy-5-chloro-3-indoleacetic acid], for which the Ki in assay [2] was over 100 µM; in assay [1] it was 11.7 µM.
For `CCOC(=O)Cc1c(C=O)[nH]c2cc(Cl)ccc12` [compound 51, ethyl 6-chloro-2-formyl-3-indole acetate], the Ki in assay [1] was over 30 µM.
As for `CCOC(=O)Cc1c(C(=O)OCC)[nH]c2ccccc12` [compound 19, ethyl 2-carboethoxy-3-indoleacetate], the Ki in assay [2] and in assay [1] was over 100 µM each time.
On to `O=C(Cc1c(C(=O)O)[nH]c2cc(Cl)ccc12)NCCO` [compound 39, 2-carboxy-6-chloro-3-indoleacetic acid 3-(2-hydroxyethyl)amide], for which the Ki in assay [1] amounted to 11.4 µM.
As for `CCOC(=O)c1[nH]c2cc(Cl)ccc2c1CC(N)=O` [compound 55, 2-carboethoxy-6-chloro-3-indoleacetamide], in assay [1], the Ki is over 30 µM.
As for `CCOC(=O)Cc1c(CO)[nH]c2cc(Cl)ccc12` [compound 52, ethyl 6-chloro-2-hydroxymethyl-3-indoleacetate], the Ki in assay [1] is over 30 µM.
For `O=C(O)c1[nH]c2cc(Cl)ccc2c1O` [Compound No. 11, 6-chloro-3-hydroxyindole-2-carboxylic acid], the Ki in assay [2] and in assay [1] was over 100 µM throughout.
For `Cc1cc2c(CC(=O)O)c(C(=O)O)[nH]c2cc1Cl` [compound 21, 2-carboxy-6-chloro-5-methylindole-3-acetic acid], the Ki in assay [1] is over 10 µM.
`O=C(Cc1c(C(=O)O)[nH]c2cc(Cl)ccc12)NCCc1ccccc1` [compound 45, 2-carboxy-6-chloro-3-indoleacetic acid 3-phenylethylamide]: the Ki in assay [1] is 0.47 µM.
Regarding `CN(C)CCNC(=O)Cc1c(C(=O)NCCN(C)C)[nH]c2cc(Cl)ccc12` [compound 54, 2-carboxy-6-chloro-3-indole acetic acid bis-2-dimethyl aminoethylamide], the Ki in assay [1] is over 30 µM.
On to `CN(C)C(=O)Cc1c(C(=O)O)[nH]c2cc(Cl)ccc12` [compound 36, 2-carboxy-6-chloro-3-indole acetic acid 3-dimethyl amide], for which the Ki in assay [1] was over 30 µM.
Consider `O=C(O)c1cc2cc(Br)ccc2[nH]1` [compound 16, 5-bromoindole-2-carboxylic acid], for which the Ki in assay [2] and in assay [1] was over 100 µM throughout.
With `O=C(O)c1cc2c(O)cccc2[nH]1` [compound 28, 4-hydroxyindole-2-carboxylic acid], the Ki in assay [1] is over 20 µM.
Turning to `O=C(O)c1[nH]c2ccccc2c1CO` [Compound No. 12, 3-hydroxymethylindole-2-carboxylic acid], the Ki in assay [2] and in assay [1] was over 100 µM throughout.
With `O=C(O)Cc1c(CO)[nH]c2cc(Cl)ccc12`, in assay [1], the Ki is over 30 µM.
Regarding `O=C(O)CCCCc1c(C(=O)O)[nH]c2ccccc12` [compound 9, 2-carboxy-3-indolepentanoic acid], the Ki in assay [2] and in assay [1] was over 100 µM in each case.
For the molecule `O=C(O)Cc1c(C(=O)O)[nH]c2c(Cl)cccc12` [compound 29, 2-carboxy-7-chloroindole-3-acetic acid], the Ki in assay [1] was over 30 µM.
For `O=C(O)CCCc1c(C(=O)O)[nH]c2ccccc12` [compound 8, 2-carboxy-3-indolebutanoic acid], the Ki in assay [2] and in assay [1] was over 100 µM each time.
Turning to `CCOC(=O)c1[nH]c2cc(Cl)ccc2c1CCCl` [compound 47, ethyl 6-chloro-3-(2-chloroethyl)-2-indolecarboxylate], the Ki in assay [1] is over 10 µM.
Consider `O=C(O)Cc1c(C(=O)O)[nH]c2ccc(F)cc12` [compound 5, 2-carboxy-5-fluoro-3-indoleacetic acid], for which the Ki in assay [2] was over 100 µM; in assay [1] it was 17.5 µM.
For `O=C(O)CCc1c(C(=O)O)[nH]c2ccccc12` [compound 7, 2-carboxy-3-indolepropanoic acid], in that order: over 100 µM and over 100 µM.
Turning to `O=C1OCCc2c1[nH]c1ccccc21` [compound 23, 4,9-dihydropyrano[3,4-b]indol-1(3H)-one], the Ki in assay [1] was over 100 µM.
Turning to `CCC(C(=O)O)c1c(C(=O)O)[nH]c2ccccc12` (stereo not drawn) [compound 10, 2-(2-carboxy-3-indole)butanoic acid], the Ki in assay [2] and in assay [1] was over 100 µM in each case.
Regarding `CCOC(=O)Cc1c(C(=O)OCC)[nH]c2cc(Cl)ccc12` [compound 22, ethyl 2-carboethoxy-6-chloro-3-indoleacetate], in assay [1], the Ki is over 100 µM.
As for `CCOC(=O)Cc1c(C(=O)OCCCN(C)C)[nH]c2cc(Cl)ccc12` [compound 34, ethyl 2-(3-dimethylaminopropyloxycarbonyl)-6-chloro-3-indole acetate], the Ki in assay [1] was over 30 µM.
Consider `CCCOC(=O)Cc1c(C(=O)O)[nH]c2cc(Cl)ccc12` [compound 42, propyl 2-carboxy-6-chloro-3-indoleacetate], for which the Ki in assay [1] amounted to 7 µM.
Regarding `O=C(O)c1cc2c(OCc3ccccc3)cccc2[nH]1` [compound 27, 4-benzyloxyindole-2-carboxylic acid], the Ki in assay [1] was over 20 µM.
